Target: T1, EZH2 within the PRC2 complex (Homo sapiens, UniProt Q15910)
T1 construct: FLAG; made in house; host or cells: Sf9 cells
Test: EZH2 methyltransferase scintillation proximity assay (SPA)
Format: biochemical
Settings: Human PRC2 5 member complex (FLAG-EZH2, EED, SUZ12, RbAp48, AEBP2), 1 nM enzyme, biotinylated histone H3K27 peptide, 3H-SAM, 60 min at room temperature
Procedure: Compounds contained herein were evaluated for their ability to inhibit the methyltransferase activity of EZH2 within the PRC2 complex. Human PRC2 complex was prepared by co-expressing each of the 5 member proteins (FLAG-EZH2, EED, SUZ12, RbAp48, AEBP2) in Sf9 cells followed by co-purification. Enzyme activity was measured in a scintillation proximity assay (SPA) where a tritiated methyl group is transferred from 3H-SAM to a lysine residue on a biotinylated, unmethylated peptide substrate derived from histone H3. The peptides were captured on streptavidin-coated SPA beads and the resulting signal was read on a ViewLux plate reader.
• 1. Prepare 10 mM stock of compounds from solid in 100% DMSO. • 2. Set up an 11-point serial dilution (1:4 dilution, top concentration 10 mM) in 100% DMSO for each test compound in a 384 well plate leaving columns 6 and 18 for DMSO controls. • 3. Dispense 10 nL of compound from the dilution plate into reaction plates (Corning, 384-well polystyrene NBS, Cat#3673).
Prepare the following solutions: • 1. 1× Base Buffer, 50 mM Tris-HCl, pH 8, 2 mM MgCl2: Per 1 L of base buffer, combine 1 M Tris-HCl, pH 8 (50 mL), 1 M MgCl2 (2 mL), and distilled water (948 mL). • 2. 1× Assay Buffer: Per 10 mL of 1× Assay Buffer, combine 1× Base Buffer (9.96 mL), 1 M DTT (40 uL), and 10% Tween-20 (1 uL) to provide a final concentration of 50 mM Tris-HCl, pH 8, 2 mM MgCl2, 4 mM DTT, 0.001% Tween-20. • 3. 2× Enzyme Solution: Per 10 mL of 2× Enzyme Solution, combine 1× Assay Buffer (9.99 mL) and 3.24 uM EZH2 5 member complex (6.17 uL) to provide a final enzyme concentration of 1 nM. • 4. SPA Bead Solution: Per 1 mL of SPA Bead Solution, combine Streptavidin coated SPA beads (PerkinElmer, Cat# RPNQ0261, 40 mg) and 1× Assay Buffer (1 mL) to provide a working concentration of 40 mg/mL. • 5. 2× Substrate Solution: Per 10 mL of 2× Substrate Solution, combine 40 mg/mL SPA Bead Solution (375 uL), 1 mM biotinylated histone H3K27 peptide (200 uL), 12.5 uM 3H-SAM (240 uL; 1 mCi/mL), 1 mM cold SAM (57 uL), and 1× Assay Buffer (9.13 mL) to provide a final concentration of 0.75 mg/mL SPA Bead Solution, 10 uM biotinylated histone H3K27 peptide, 0.15 uM 3H-SAM (˜12 uCi/mL 3H-SAM), and 2.85 uM cold SAM. • 6. 2.67× Quench Solution: Per 10 mL of 2.67× Quench Solution, combine 1× Assay Buffer (9.73 mL) and 10 mM cold SAM (267 uL) to provide a final concentration of 100 uM cold SAM.
• 1. Stamp 10 nL/well of 1000× Compound to test wells (as noted above). • 2. Stamp 10 nL/well of 100% DMSO to columns 6 & 18 (high and low controls, respectively).
• 1. Dispense 5 uL/well of 1× Assay Buffer to column 18 (low control reactions). • 2. Dispense 5 uL/well of 2× Substrate Solution to columns 1-24 (note: substrate solution should be mixed to ensure homogeneous bead suspension before dispensing into matrix reservoir). • 3. Dispense 5 uL/well of 2× Enzyme Solution to columns 1-17, 19-24. • 4. Incubate the reaction for 60 min at room temperature.
• 1. Dispense 6 uL/well of the 2.67× Quench Solution to columns 1-24. • 2. Seal assay plates and spin for ˜1 min at 500 rpm. • 3. Dark adapt plates in the ViewLux instrument for 15-60 min.
• 1. Read the assay plates on the Viewlux Plate Reader utilizing the 613 nm emission filter or clear filter (300 s exposure). Reagent addition can be done manually or with automated liquid handler.
Percent inhibition was calculated relative to the DMSO control for each compound concentration and the resulting values were fit using standard IC50 fitting parameters within the ABASE data fitting software package.
The IC50 values of <10 nM indicate that the activity of compound was approaching the limit of detection in the assay. Repeating the assay run(s) may result in somewhat different IC50 values.

T1 sequence (Q15910 whole entry): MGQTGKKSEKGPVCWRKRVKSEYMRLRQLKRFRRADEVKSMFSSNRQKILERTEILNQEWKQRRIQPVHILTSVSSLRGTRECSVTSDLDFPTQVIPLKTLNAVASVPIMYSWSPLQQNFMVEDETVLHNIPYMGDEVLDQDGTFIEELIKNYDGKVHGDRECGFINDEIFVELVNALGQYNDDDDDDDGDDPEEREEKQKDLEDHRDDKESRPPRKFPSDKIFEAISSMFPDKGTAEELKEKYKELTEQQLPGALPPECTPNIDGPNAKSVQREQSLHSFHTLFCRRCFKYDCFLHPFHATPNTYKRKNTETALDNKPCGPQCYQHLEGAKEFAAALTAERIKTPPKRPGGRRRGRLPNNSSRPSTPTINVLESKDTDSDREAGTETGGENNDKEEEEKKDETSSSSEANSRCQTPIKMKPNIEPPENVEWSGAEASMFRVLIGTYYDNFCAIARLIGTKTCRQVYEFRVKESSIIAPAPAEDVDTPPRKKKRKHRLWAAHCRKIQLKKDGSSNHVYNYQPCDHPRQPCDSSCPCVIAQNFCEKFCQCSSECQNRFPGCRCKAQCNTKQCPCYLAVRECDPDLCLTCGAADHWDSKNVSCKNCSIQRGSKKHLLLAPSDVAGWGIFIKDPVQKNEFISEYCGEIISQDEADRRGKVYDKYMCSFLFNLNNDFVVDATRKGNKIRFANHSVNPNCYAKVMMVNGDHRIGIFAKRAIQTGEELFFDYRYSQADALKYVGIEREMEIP
T1 sequence (O75530 whole entry partner): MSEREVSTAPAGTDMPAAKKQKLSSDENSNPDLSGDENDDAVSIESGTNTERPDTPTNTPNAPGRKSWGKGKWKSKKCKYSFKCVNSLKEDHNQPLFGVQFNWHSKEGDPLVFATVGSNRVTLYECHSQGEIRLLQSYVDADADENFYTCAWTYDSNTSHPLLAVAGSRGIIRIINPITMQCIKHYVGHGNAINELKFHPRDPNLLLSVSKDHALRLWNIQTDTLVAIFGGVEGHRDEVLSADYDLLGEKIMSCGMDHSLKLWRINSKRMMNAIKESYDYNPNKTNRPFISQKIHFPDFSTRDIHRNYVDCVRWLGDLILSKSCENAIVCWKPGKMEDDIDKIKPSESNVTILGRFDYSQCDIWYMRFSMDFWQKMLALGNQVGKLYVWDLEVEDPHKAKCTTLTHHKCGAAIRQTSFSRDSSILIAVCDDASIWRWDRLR
T1 sequence (Q15022 whole entry partner): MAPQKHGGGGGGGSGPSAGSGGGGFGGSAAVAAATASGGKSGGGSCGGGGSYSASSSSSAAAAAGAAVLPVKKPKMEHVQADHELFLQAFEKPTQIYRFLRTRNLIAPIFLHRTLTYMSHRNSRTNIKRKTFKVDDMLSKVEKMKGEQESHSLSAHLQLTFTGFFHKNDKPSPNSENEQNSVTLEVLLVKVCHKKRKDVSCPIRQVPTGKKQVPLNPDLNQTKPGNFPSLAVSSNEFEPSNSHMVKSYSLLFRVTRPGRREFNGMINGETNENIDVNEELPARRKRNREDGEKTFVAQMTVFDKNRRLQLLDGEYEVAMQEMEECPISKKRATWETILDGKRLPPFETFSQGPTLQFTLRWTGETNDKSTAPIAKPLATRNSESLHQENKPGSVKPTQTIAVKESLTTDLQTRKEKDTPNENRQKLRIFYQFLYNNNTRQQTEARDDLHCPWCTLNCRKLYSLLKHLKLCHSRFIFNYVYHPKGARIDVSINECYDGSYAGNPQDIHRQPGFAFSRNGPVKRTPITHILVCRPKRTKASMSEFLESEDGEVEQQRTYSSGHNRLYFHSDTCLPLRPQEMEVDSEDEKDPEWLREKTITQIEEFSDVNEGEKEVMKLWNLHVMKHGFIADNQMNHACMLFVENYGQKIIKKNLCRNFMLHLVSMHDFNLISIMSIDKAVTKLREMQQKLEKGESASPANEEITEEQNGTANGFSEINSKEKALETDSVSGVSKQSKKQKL
T1 sequence (Q09028 whole entry partner): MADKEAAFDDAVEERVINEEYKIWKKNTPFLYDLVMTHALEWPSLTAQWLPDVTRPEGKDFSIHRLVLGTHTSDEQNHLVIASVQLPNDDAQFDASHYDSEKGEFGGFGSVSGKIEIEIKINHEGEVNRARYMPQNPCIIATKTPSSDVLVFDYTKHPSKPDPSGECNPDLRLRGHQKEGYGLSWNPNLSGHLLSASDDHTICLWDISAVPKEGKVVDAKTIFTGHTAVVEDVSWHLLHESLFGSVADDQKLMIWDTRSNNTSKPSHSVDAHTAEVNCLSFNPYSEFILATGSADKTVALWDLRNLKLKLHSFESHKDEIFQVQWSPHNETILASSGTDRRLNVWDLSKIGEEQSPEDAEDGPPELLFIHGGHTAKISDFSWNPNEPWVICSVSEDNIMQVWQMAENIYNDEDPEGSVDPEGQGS
T1 sequence (Q6ZN18 whole entry partner): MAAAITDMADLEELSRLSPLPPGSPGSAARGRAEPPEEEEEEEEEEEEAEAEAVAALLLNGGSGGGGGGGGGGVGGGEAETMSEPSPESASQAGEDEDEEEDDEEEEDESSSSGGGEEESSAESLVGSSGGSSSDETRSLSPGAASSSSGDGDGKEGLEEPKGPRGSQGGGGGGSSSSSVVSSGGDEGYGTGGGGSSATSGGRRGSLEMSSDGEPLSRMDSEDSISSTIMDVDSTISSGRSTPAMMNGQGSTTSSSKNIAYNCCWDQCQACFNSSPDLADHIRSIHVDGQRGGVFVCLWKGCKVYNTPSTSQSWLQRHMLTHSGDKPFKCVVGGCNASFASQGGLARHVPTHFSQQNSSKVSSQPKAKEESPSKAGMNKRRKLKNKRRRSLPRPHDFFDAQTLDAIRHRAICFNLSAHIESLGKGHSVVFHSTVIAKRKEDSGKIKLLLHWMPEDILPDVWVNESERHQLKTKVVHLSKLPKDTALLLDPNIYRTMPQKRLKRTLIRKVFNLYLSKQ

Row | SMILES | IC50 [nM]
1 | CCC(=C1CCN(Cc2ncco2)CC1)c1scc(C(=O)NCc2c(C)cc(C)[nH]c2=O)c1C [Example 12, N-((4,6-Dimethyl-2-oxo-1,2-dihydropyridin-3-yl)methyl)-4-methyl-5-(1-(1-(oxazol-2-ylmethyl)piperidin-4-ylidene)propyl)thiophene-3-carboxamide] | ≤ 10
2 | CCC(=C1CCN(/C(=N/C#N)NC)CC1)c1scc(C(=O)NCc2c(C)cc(C)[nH]c2=O)c1C [Example 15, 5-(1-(1-(N′-Cyano-N-methylcarbamimidoyl)piperidin-4-ylidene)propyl)-N-((4,6-dimethyl-2-oxo-1,2-dihydropyridin-3-yl)methyl)-4-methylthiophene-3-carboxamide] | ≤ 10
3 | CCC(c1sc2c(c1C)C(=O)N(Cc1c(C)cc(C)[nH]c1=O)CC2)C1CCN(/C(=N\C#N)NC)CC1 (centres unmarked) [Example 18, N′-Cyano-4-(1-(5-((4,6-dimethyl-2-oxo-1,2-dihydropyridin-3-yl)methyl)-3-methyl-4-oxo-4,5,6,7-tetrahydrothieno[3,2-c]pyridin-2-yl)propyl)-N-methylpiperidine-1-carboximidamide] | ≤ 10
4 | CCC(c1scc(C(=O)NCc2c(C)cc(C)[nH]c2=O)c1C)C1CCN(/C(=N\C#N)NC)CC1 (centres unmarked) [Example 19, 5-(1-(1-(N′-Cyano-N-methylcarbamimidoyl)piperidin-4-yl)propyl)-N-((4,6-dimethyl-2-oxo-1,2-dihydropyridin-3-yl)methyl)-4-methylthiophene-3-carboxamide] | 316
5 | CCC(=C1CCN(CC(F)F)CC1)c1scc(C(=O)NCc2c(C)cc(C)[nH]c2=O)c1C [Example 20, 5-(1-(1-(2,2-Difluoroethyl)piperidin-4-ylidene)propyl)-N-((4,6-dimethyl-2-oxo-1,2-dihydropyridin-3-yl)methyl)-4-methylthiophene-3-carboxamide] | ≤ 10
6 | CC[C@@H](c1scc(C(=O)NCc2c(C)cc(C)[nH]c2=O)c1C)C1CCN(CC(F)F)CC1 [Example 21, (R)-5-(1-(1-(2,2-Difluoroethyl)piperidin-4-yl)propyl)-N-((4,6-dimethyl-2-oxo-1,2-dihydropyridin-3-yl)methyl)-4-methylthiophene-3-carboxamide] | ≤ 10

Other lines, results leading:

Row | IC50 [nM] | SMILES
7 | 13 | CCC(=C1CCN(c2ncccn2)CC1)c1scc(C(=O)NCc2c(C)cc(C)[nH]c2=O)c1C [Example 13, N-((4,6-Dimethyl-2-oxo-1,2-dihydropyridin-3-yl)methyl)-4-methyl-5-(1-(1-(pyrimidin-2-yl)piperidin-4-ylidene)propyl)thiophene-3-carboxamide]
8 | 100 | CCC(c1sc2c(c1C)C(=O)N(Cc1c(C)cc(C)[nH]c1=O)CC2)C1CCN(CC(C)(F)F)CC1 (centres unmarked) [Example 16, 2-(1-(1-(2,2-Difluoropropyl)piperidin-4-yl)propyl)-5-((4,6-dimethyl-2-oxo-1,2-dihydropyridin-3-yl)methyl)-3-methyl-6,7-dihydrothieno[3,2-c]pyridin-4(5H)-one]
9 | 100 | CCC(c1sc2c(c1C)C(=O)N(Cc1c(C)cc(C)[nH]c1=O)CC2)C1CCN(CC(C)F)CC1 (centres unmarked) [Example 17, 5-((4,6-Dimethyl-2-oxo-1,2-dihydropyridin-3-yl)methyl)-2-(1-(1-(2-fluoropropyl)piperidin-4-yl)propyl)-3-methyl-6,7-dihydrothieno[3,2-c]pyridin-4(5H)-one]
10 | ≤ 10 | Cc1cc(C)c(CNC(=O)c2csc([C@H](C)C3CCN(CC(F)F)CC3)c2C)c(=O)[nH]1 [Example 22, (R)-5-(1-(1-(2,2-Difluoroethyl)piperidin-4-yl)ethyl)-N-((4,6-dimethyl-2-oxo-1,2-dihydropyridin-3-yl)methyl)-4-methylthiophene-3-carboxamide]
11 | ≤ 10 | Cc1cc(C)c(CNC(=O)c2csc([C@H](C)C3CCN(CC(C)(F)F)CC3)c2C)c(=O)[nH]1 [Example 23, (R)-5-(1-(1-(2,2-Difluoropropyl)piperidin-4-yl)ethyl)-N-((4,6-dimethyl-2-oxo-1,2-dihydropyridin-3-yl)methyl)-4-methylthiophene-3-carboxamide]

From patent publication US20170334891A1, “ENHANCER OF ZESTE HOMOLOG 2 INHIBITORS” (GLAXOSMITHKLINE INTELLECTUAL PROPERTY (NO.2) LIMITED, priority 2014, published 2017)
